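48-hour exposure; five concentrations; linearly interpolated endpoints. GI50 = concentration required for 50% inhibition of growth. Definition used: TGI = concentration required for complete inhibition of growth.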
Columns and labels:
Assay in all cases: inhibition of tumour cell growth, NCI panel, 48 h
IGROV1 ovarian = system: IGROV1 ovarian
SF-539 CNS = system: SF-539 CNS
EKVX NSCLC = system: EKVX NSCLC
SN12C renal = system: SN12C renal
CCRF-CEM leukemia = system: CCRF-CEM leukemia
SNB-19 CNS = system: SNB-19 CNS
OVCAR-3 ovarian = system: OVCAR-3 ovarian
LOX IMVI melanoma = system: LOX IMVI melanoma
SK-MEL-5 melanoma = system: SK-MEL-5 melanoma
K-562 leukemia = system: K-562 leukemia

Compound	GI50 (IGROV1 ovarian) [µM]	TGI (IGROV1 ovarian) [µM]	GI50 (SF-539 CNS) [µM]	TGI (SF-539 CNS) [µM]	GI50 (EKVX NSCLC) [µM]	TGI (EKVX NSCLC) [µM]	GI50 (SN12C renal) [µM]	TGI (SN12C renal) [µM]	GI50 (CCRF-CEM leukemia) [µM]	TGI (CCRF-CEM leukemia) [µM]	GI50 (SNB-19 CNS) [µM]	TGI (SNB-19 CNS) [µM]	GI50 (OVCAR-3 ovarian) [µM]	TGI (OVCAR-3 ovarian) [µM]	GI50 (LOX IMVI melanoma) [µM]	TGI (LOX IMVI melanoma) [µM]	GI50 (SK-MEL-5 melanoma) [µM]	TGI (SK-MEL-5 melanoma) [µM]	GI50 (K-562 leukemia) [µM]	TGI (K-562 leukemia) [µM]
O.O=[Se](=O)(O)O.[NH-]C1CCCCC1[NH-].[Pt+2] (centres undefined)	7.98	> 100	25.3	> 100	36.1	> 100	23.3	> 100	9.8	> 100	> 50.7	> 100	21.2	> 81.9	8.21	> 74.7	7.4	15.6	5.35	> 100
C#Cc1ccccc1C(=O)OC	–	> 100	–	> 100	–	> 100	–	> 100	–	> 100	–	> 100	–	> 100	–	> 100	–	> 100	–	> 100
COc1cc(/C=C/C=C2\CC(C)C/C(=C\C=C\c3ccc(O)c(OC)c3)C2=O)ccc1O (centres undefined)	–	20.8	–	82.3	–	> 100	–	> 100	–	15.6	–	96.2	–	31.1	–	65.1	–	37.6	–	> 100
C1CN(C23OC4(N5CCOCC5)C5C6CC(C7C6C4C72)C53)CCO1 (centres undefined)	–	> 100	–	> 100	–	> 100	–	> 100	–	> 100	–	> 100	–	> 100	–	> 100	–	> 100	–	> 100
O=C(n1c(=O)n(-c2ccc([N+](=O)[O-])cc2)c(=O)n1C(=O)C(Cl)(Cl)Cl)C(Cl)(Cl)Cl	–	> 100	–	> 100	–	> 100	–	> 100	–	> 100	–	> 100	–	> 100	–	> 100	–	> 100	–	–
Cc1cccc(-c2cc(=O)c3c(C)ccnc3[nH]2)c1	–	> 100	–	> 100	–	> 100	–	> 100	–	> 100	–	–	–	–	–	> 100	–	27.8	–	> 100
Fc1ccccc1C1SCC2=Nc3ccccc3CN21 (centres undefined)	–	–	–	> 100	–	> 100	–	> 100	–	> 100	–	> 100	–	> 100	–	> 100	–	> 100	–	> 100
CCCCCCCCCCCOCCC1C(C(C)OCCN2CCCC2)OC2OC(C)(C)OC21 (centres undefined)	–	6.59	–	3.68	–	10.8	–	7.31	–	> 23.9	–	13.7	–	12.3	–	2.93	–	3.22	–	–
CC(=O)Oc1ccc(-c2c(OC(C)=O)c(OC(C)=O)c(-c3ccc(OC(C)=O)c(OC(C)=O)c3)c(OC(C)=O)c2OC(C)=O)cc1	–	28.8	–	34.3	–	20.2	–	35.1	–	37.4	–	32.6	–	30	–	31.8	–	25.5	–	43.5
CC(C)=CCC/C(C)=C/CCC1(C)C2COC(=O)C21 (centres undefined)	–	> 100	–	–	–	> 100	–	> 100	–	80.8	–	> 100	–	> 100	–	89	–	91.7	–	49.2
CCCNC(=O)Cn1c(-c2ccccc2)cc2ccccc21	–	> 100	–	> 100	–	> 100	–	> 100	–	> 100	–	> 100	–	> 100	–	> 100	–	> 100	–	> 100
OCC(CO)CC1COc2ccccc2O1 (centres undefined)	–	> 10	–	> 10	–	> 10	–	> 10	–	> 10	–	> 10	–	> 10	–	> 10	–	> 10	–	> 10
C=C(Cl)C(=C)CCC(Cl)C(C)(C)Cl (centres undefined)	–	> 100	–	> 100	–	> 100	–	> 100	–	> 100	–	> 100	–	> 100	–	> 100	–	> 100	–	> 100
c1csc(-c2csc(-c3cccs3)c2)c1	–	> 100	–	> 100	–	> 100	–	> 100	–	> 100	–	> 100	–	> 100	–	> 100	–	38.8	–	–
CCOC(=O)Cn1c(C)nc2nn(Cc3ccccc3)cc2c1=O	–	> 100	–	> 100	–	> 100	–	> 100	–	> 100	–	> 100	–	> 100	–	–	–	> 100	–	> 100
O=C(O)C1(Cc2ccc3c(c2)CCC3)Cc2cc3c(cc2C1)CCC3	–	> 100	–	> 100	–	> 100	–	–	–	> 100	–	> 100	–	> 100	–	> 100	–	> 100	–	> 100
Brc1ccc2[nH]cc(-c3nc(-c4c[nH]c5ccncc45)cs3)c2c1	–	–	1.72	3.11	–	–	1.79	3.32	2.24	5.14	–	–	–	–	–	–	1.61	2.98	0.98	3.38
COc1ccc(/C=C(\C#N)c2nc(-c3cc4ccccc4oc3=O)cs2)cc1	–	62.2	–	54.9	–	> 100	–	> 100	–	> 100	–	34.9	–	–	–	> 100	–	> 100	–	> 100
COc1ccc(/C(Cl)=C(\C=O)c2ccc(Cl)cc2)cc1	–	42.1	–	–	–	> 100	–	13.6	–	11.4	–	87.4	–	32.1	–	23.8	–	32.6	–	> 100
Cc1cc2nnn(C3CCCO3)c2cc1C (centres undefined)	–	> 100	–	> 100	–	> 100	–	> 100	–	> 100	–	–	–	> 100	–	–	–	> 100	–	> 100
CCCCC[C@@H]1OC(=O)[C@@]2(CC3c4ccccc4C2c2ccccc23)[C@H]1C(=O)OC	–	> 100	–	–	–	> 100	–	> 100	–	> 100	–	> 100	–	> 100	–	> 100	–	39.2	–	> 100
Oc1cc(Br)cc2cc(Br)cnc12	–	12.6	–	> 100	–	37.4	–	73	–	6.27	–	> 100	–	–	–	> 100	–	31.7	–	94.2
CCOc1cc(C=Nc2ccc(Oc3ccc(Cl)cc3)c(Cl)c2)ccc1O	–	60.6	–	54.7	–	41.3	–	38.8	–	50.8	–	62.1	–	85.7	–	39.9	–	52.9	–	–

Reference: PubChem BioAssay (NCI)
